For one experiment, the system named is female sticklebacks. The experiment can be described thus: Flow channel odour preference / mate choice experiment with sticklebacks. The class given is in vivo, Gasterosteus aculeatus. On the procedure: The source of sticklebacks has been described (7). The flow channel set-up to evaluate mate choice determines odour preference, as a precursor of mate choice. Water was taken from the tank of a single male per trial and used both as stimulus (after addition of peptide(s)) and control (after addition of solvent) water. Peptides were added to the bottle with stimulus water just before the experiment at a final concentration of 1 mM; this becomes diluted to 5 nM in the water column passing through the test compartment. The following nona-peptides were used, MHC specificities indicated in brackets: […] (H2-K^b); […] and AAPDNRETF (H2-D^b); SYFPEITHI and SYIPSAEKI (H2-K^d). Peptides were synthesized by solid-phase 9-fluorenylmethoxycarbonyl chemistry. In experiments using a single peptide, AAPDNRETF was used. All experiments were performed in double-blinded fashion as described. Statistical analysis was performed with JMP 4.
The binding preferences for peptides of MHC molecules of sticklebacks are unknown; therefore synthetic peptides derived from endogenous mouse and viral proteins that are ligands for different mouse MHC molecules were used. Such peptides almost certainly appear foreign to sticklebacks irrespective of their MHC genotypes. Gravid females prefer water from a tank harbouring a male to that from a tank with fresh water (Experiment A, Table 1). Therefore, it was tested whether addition of peptide(s) to water from individual males would alter the outcome of mate choice. Gravid females were presented with water from single males with and without the addition of a mixture of five different peptides in the two columns of a flow-channel.

For a further experiment, the system named is human beings. The experiment can be described thus: Odour evaluation of paired aqueous solutions by test persons (similar or different). The following applies: 0.5 mM in phosphate buffered saline. The experiment is classed as in vivo. On the procedure:
Several individuals were asked to evaluate the odour of a number of aqueous solutions. A prototypical MHC class I peptide (SLLPAIVEL), a known ligand of the A′02xx allele, or an equimolar mixture of the corresponding amino acids (S, L, P, A, I, V, E) were added to solvent (phosphate buffered saline) at final concentrations of 0.5 mM. These solutions were offered in pairs and the test persons were asked to decide whether the two solutions smelled similar or different. The probands easily distinguish peptides from amino acids.

The mark [1] stands for this setting: Test pair Peptide vs. Amino acids.

As for “AAPDNRETF [1 peptide, synthetic nona-peptide, H2-D^b ligand; used in experiments using a single peptide]”, the “Time spent on side of water source 2” value came to 291.8 ± 24.6 s with female sticklebacks (Experiment B, gravid females, Fresh + 1 peptide vs Fresh + solvent, 5 nM in water column, n=24); 327.7 ± 24.8 s in the experiment with female sticklebacks (Experiment C, gravid females, Male + 1 peptide vs Male + solvent, 5 nM, n=25); 327.7 ± 24.8 s in the experiment with female sticklebacks (Experiment C, gravid females, Male + 1 peptide vs Male + solvent, 5 nM, n=25, listed as one peptide); 308.1 ± 23.5 s with female sticklebacks (Experiment E, non-gravid females, Male + 1 peptide vs Male + solvent, 5 nM, n=25). The “Attractiveness of peptide in plain tank water (in words)” value in the experiment with female sticklebacks (Experiment B, gravid females, plain tank water) is reported as “not attractive”. Further, the “Preference for male water with vs without peptide (in words)” value with female sticklebacks (Experiment E, non-gravid fish, male water) is reported as “no preference was observed”. Further, the “Excess time spent on the side of peptide-supplemented male water” value in the experiment with female sticklebacks (gravid females, male water, excess over 300 sec) is 27.7 ± 12.4 s.

As for “SLLPAIVEL [Peptide, prototypical MHC class I peptide, known ligand of the A*02xx allele]”, in the experiment with human beings (setting [1]), the Probands scoring difference is 13/14 and the “Probands scoring difference (fraction)” value is listed as “(0.93)”. In the experiment on human beings (Test pair Peptide vs. Peptide), the Probands scoring difference is given as 1/14 and the “Probands scoring difference (fraction)” value is listed as “(0.07)”.

(Values after patent US20060039883A1, “Biologically active compounds for the modification of bodily odours” (priority 2002, published 2006).)
